Experimental data: the NIST ThermoML archive (doi:10.1021/je900048r)
Numbers after ± are expanded uncertainties.

Test: xn = mol fraction of the nth substance listed
Settings: Liquid, Other PVT measurement

CCCCn1cc[n+](C)c1.F[B-](F)(F)F [1-butyl-3-methylimidazolium tetrafluoroborate] + CCO
mass density [kg/m3]
Settings | x1 = 0.2 | x1 = 0.3 | x1 = 0.3999 | x1 = 0.4998 | x1 = 0.6 | x1 = 0.6996 | x1 = 0.8001 | x1 = 0.8998 | x1 = 1
313.15 K, 200 kPa | 965 ± 10 | 1022 ± 10 | 1071 ± 11 | 1098 ± 11 | 1121 ± 11 | 1142 ± 11 | 1158 ± 12 | 1173 ± 12 | 1185 ± 12
313.15 K, 600 kPa | 966 ± 10 | 1023 ± 10 | 1072 ± 11 | 1098 ± 11 | 1122 ± 11 | 1142 ± 11 | 1158 ± 12 | 1174 ± 12 | 1186 ± 12
313.15 K, 1000 kPa | 966 ± 10 | 1023 ± 10 | 1072 ± 11 | 1098 ± 11 | 1122 ± 11 | 1143 ± 11 | 1159 ± 12 | 1174 ± 12 | 1186 ± 12
313.15 K, 1400 kPa | 966 ± 10 | 1024 ± 10 | 1072 ± 11 | 1099 ± 11 | 1123 ± 11 | 1144 ± 11 | 1159 ± 12 | 1174 ± 12 | 1186 ± 12
313.15 K, 1800 kPa | 967 ± 10 | 1024 ± 10 | 1073 ± 11 | 1099 ± 11 | 1123 ± 11 | 1144 ± 11 | 1160 ± 12 | 1174 ± 12 | 1187 ± 12
313.15 K, 2000 kPa | 967 ± 10 | 1024 ± 10 | 1073 ± 11 | 1102 ± 11 | 1123 ± 11 | 1144 ± 11 | 1160 ± 12 | 1175 ± 12 | 1187 ± 12
353.15 K, 200 kPa | 935 ± 9 | 993 ± 10 | 1042 ± 10 | 1070 ± 11 | 1094 ± 11 | 1116 ± 11 | 1131 ± 11 | 1147 ± 12 | 1159 ± 12
353.15 K, 600 kPa | 935 ± 9 | 993 ± 10 | 1042 ± 10 | 1071 ± 11 | 1094 ± 11 | 1116 ± 11 | 1132 ± 11 | 1147 ± 12 | 1160 ± 12
353.15 K, 1000 kPa | 935 ± 9 | 993 ± 10 | 1043 ± 10 | 1071 ± 11 | 1095 ± 11 | 1116 ± 11 | 1132 ± 11 | 1147 ± 12 | 1160 ± 12
353.15 K, 1400 kPa | 936 ± 9 | 994 ± 10 | 1043 ± 10 | 1071 ± 11 | 1095 ± 11 | 1116 ± 11 | 1133 ± 11 | 1147 ± 12 | 1160 ± 12
